One test deals with T1, Clb2-Cdk1 (Saccharomyces cerevisiae, UniProt P00546+P24869).
T1 construct: We purified the four cyclin-Cdk1 complexes from yeast; made in house; host or cells: S. cerevisiae strain DOM0077 (gal-CLB2-TAP, sic1 deleted); Cks1 from bacteria
The following applies: higher specificity for mitotic Clb2-Cdk1 than S phase Clb5-Cdk1; ref Loog and Morgan, 2005; cited from earlier work. From the text:
To study how different cyclins modulate the substrate specificity of Cdk1, we performed a quantitative analysis of yeast Cdk1 specificity in complex with each of four cyclins: the G1/S cyclin Cln2, the S phase triggering cyclin Clb5, the G2/M cyclin Clb3, and the mitotic cyclin Clb2. The cellular levels of these four cyclins peak in sequence over the course of the cell cycle (Figure 1A). We purified the four cyclin-Cdk1 complexes from yeast (Figure 1D) and analyzed their kinetic properties with a commonly used optimal model substrate for Cdk1, a peptide derived from the general substrate Histo ...

A further test concerns the target T2, Clb4-Cdk1 (Saccharomyces cerevisiae, UniProt P00546+P24871).
T2 construct: made in house
Nature of the test: Peptide kinetics with the model substrate (data not shown). The format is biochemical. As to the method: (§1) The four major cyclin-Cdk1 complexes used in our experiments seem sufficient for describing
(§2) the general dynamic changes of Cdk1 specificity during the cell cycle, as the rest of the cyclins,
(§3) Clb1 and Clb4 (Grandin and Reed, 1993) as well as Cln3 and Clb6 (Cross et al., 2002; Tyers et
(§4) al., 1993) are less abundant and therefore minor contributors to the total concentration of
(§5) activated Cdk1, and most likely would not yield significant changes to the general model. In
(§6) an intermediate KM (210 μM) for the model substrate (data not shown). However, due to poor
(§7) purification yields, this kinase was excluded from detailed analysis. Additionally, the other G1
(§8) towards the peptide substrate (KM > 1 mM, data not shown).
(§9) Our findings have raised an intriguing question of how cyclins can change the specificity
(§10) of the Cdk1 active site, so that its ability to bind and phosphorylate the consensus site motif is
(§11) altered. These cyclin-specific effects could be due to specific conformational changes induced by
(§12) cyclin in the Cdk1 molecule, resulting in altered accessibility and configuration of its active site.
(§13) of Swe1 to phosphorylate different cyclin-Cdk1 complexes at the active site-gating Y19 residue.
(§14) The other gradually changing feature, the relative differences in RXL-dependent docking
(§15) mechanisms among the B-type cyclin-Cdk1s, could also be due to different specific […]

A further test has as its target Cln1-Cdk1 (Saccharomyces cerevisiae, UniProt P00546+P20437). The test is described as above. The format is biochemical. The protocol: as §1, §2, §3, §4, §5, §6, §7, §8, §9, §10, §11, §12, §13, §14, §15

T2 sequence (P00546 2-298 limits assumed): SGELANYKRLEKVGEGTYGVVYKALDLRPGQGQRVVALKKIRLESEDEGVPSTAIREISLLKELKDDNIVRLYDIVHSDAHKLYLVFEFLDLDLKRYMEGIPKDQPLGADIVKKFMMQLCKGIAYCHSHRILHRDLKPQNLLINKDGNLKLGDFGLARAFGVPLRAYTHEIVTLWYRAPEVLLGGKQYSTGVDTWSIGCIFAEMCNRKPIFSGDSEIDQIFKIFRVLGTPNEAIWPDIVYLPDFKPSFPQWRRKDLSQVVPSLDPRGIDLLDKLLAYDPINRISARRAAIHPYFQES
T2 sequence (P24871 whole entry partner): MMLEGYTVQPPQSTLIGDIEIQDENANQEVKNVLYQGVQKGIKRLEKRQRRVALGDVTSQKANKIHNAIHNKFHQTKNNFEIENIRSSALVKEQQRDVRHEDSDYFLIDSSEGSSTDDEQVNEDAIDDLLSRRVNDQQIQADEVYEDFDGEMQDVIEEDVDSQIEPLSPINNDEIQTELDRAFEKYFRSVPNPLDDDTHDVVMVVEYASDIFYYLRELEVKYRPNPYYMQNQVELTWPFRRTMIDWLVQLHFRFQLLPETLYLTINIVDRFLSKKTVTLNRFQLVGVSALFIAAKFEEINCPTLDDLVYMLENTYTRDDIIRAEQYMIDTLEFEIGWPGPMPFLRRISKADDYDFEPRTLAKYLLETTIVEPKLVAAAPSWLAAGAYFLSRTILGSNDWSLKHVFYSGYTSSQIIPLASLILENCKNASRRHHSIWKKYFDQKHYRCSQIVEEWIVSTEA
T2 sequence (P20486 whole entry partner): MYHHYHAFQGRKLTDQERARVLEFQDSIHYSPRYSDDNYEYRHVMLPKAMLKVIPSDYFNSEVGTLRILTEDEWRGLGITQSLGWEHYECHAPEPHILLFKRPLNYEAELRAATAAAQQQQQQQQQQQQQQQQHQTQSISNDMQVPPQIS
T1 sequence (P00546 2-298 limits assumed): as the sequence (P00546 2-298 limits assumed) above
T1 sequence (P24869 2-491 partner limits assumed): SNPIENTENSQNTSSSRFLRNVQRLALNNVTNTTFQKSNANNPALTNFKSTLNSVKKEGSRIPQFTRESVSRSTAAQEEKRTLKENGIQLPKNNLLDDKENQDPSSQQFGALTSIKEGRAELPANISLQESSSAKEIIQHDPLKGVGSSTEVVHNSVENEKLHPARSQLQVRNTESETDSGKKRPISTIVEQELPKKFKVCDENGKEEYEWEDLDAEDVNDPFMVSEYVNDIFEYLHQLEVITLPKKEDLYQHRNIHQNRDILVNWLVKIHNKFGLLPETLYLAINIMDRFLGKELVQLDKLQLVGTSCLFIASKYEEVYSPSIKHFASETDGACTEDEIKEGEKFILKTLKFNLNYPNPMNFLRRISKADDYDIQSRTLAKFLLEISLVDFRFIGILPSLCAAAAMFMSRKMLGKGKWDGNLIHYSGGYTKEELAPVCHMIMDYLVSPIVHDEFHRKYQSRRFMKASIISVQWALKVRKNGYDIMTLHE
T1 sequence (P20486 whole entry partner): as the sequence (P20486 whole entry partner) above
Cln1-Cdk1, sequence (P00546 2-298 limits assumed): as the sequence (P00546 2-298 limits assumed) above
Cln1-Cdk1, sequence (P20437 whole entry partner): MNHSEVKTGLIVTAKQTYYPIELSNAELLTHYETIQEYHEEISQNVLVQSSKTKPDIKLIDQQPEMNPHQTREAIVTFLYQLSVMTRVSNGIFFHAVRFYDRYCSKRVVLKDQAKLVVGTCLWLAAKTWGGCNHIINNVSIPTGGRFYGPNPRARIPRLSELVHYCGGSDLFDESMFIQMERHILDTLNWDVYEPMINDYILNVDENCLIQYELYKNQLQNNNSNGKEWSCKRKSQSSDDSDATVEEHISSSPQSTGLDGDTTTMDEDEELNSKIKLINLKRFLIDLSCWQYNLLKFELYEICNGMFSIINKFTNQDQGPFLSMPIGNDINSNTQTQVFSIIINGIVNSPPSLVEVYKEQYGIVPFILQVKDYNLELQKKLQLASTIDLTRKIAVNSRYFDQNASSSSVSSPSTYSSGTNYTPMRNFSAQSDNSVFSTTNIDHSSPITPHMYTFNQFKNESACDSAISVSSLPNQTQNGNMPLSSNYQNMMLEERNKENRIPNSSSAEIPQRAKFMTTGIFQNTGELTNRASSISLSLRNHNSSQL
Cln1-Cdk1, sequence (P20486 whole entry partner): as the sequence (P20486 whole entry partner) above

For orientation: Km means the concentration of substrate that gives half-maximal velocity. For the sequence “PKTPKKAKKL [optimal model substrate for Cdk1, a peptide derived from the general substrate Histone H1]”, at Clb2-Cdk1, the “specificity for Clb2-Cdk1 as compared with Clb5-Cdk1” value was “about 20 fold”. For the same sequence, the values for the Km on Clb4-Cdk1 and at Cln1-Cdk1 were 210 µM and greater than 1000 µM, respectively.
